How the values were obtained:
HBV = HBV production assay; format: cell-based; conditions: Hepatitis B virus, 144 h; HepG2.2.15 cells, 6 days, HBV DNA in supernatant by qPCR
Method: HepG2.2.15 cells were maintained and seeded as described above. After administration of test compounds for 6 days, supernatant was collected and clarified by low speed centrifugation. HBV DNA was released from virion in the supernatant by incubating in lysis buffer (Roche, Catalog #07248431001). HBV DNA levels were quantified by qPCR/TaqMan assay. The nucleoside analog Entecavir (ETV) was used as a control to determine inhibition of HBV virion production in the supernatant. Table 4 illustrates EC50 values obtained by the HBV production assay for selected compounds.

[1] = clearance from blood plasma in dogs; format: in vivo
Description: (§1) The compounds of the invention disclosed in the present application were screened to evaluate their potency and toxicity profiles. Several compounds having desirable potency and toxicity profiles were identified in these screens.

HBsAg [2] = experiment: HBsAg assay; format: cell-based, hepatitis B virus; conditions: Hepatitis B virus, HepG2.2.15, 144 h, read-out: sAg EC50, μM, HepG2.2.15 cells, day 6
Summary of the method: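 HepG2.2.15 cells were treated with serially diluted compounds (0.5% DMSO), with medium and compound renewed after 2-3 days. Secreted HBsAg measured at day 6 by chemiluminescence immunoassay; EC50 from dose-response curves. Viability assessed in parallel by CellTiter-Glo.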

isolated heart = experiment: Langendorff assay; conditions: any of the concentrations tested
Description: as §1

HBsAg [3] = experiment: In vitro combination study, HBsAg CLIA, MacSynergy II; format: cell-based, hepatitis B virus
Method: In vitro combination studies were conducted using the method of Prichard & Shipman, 1990, Antiviral Res. 14(4-5):181-205, and Prichard, et al., MacSynergy II). The HepG2.2.15 cell culture system is a cell line derived from human hepatoblastoma HepG2 cells, that have been stably transfected with the adw2-subtype HBV genome (Sells, et al., 1987, Proc. Natl. Acad. Sci. U.S.A 84:1005-1009). HepG2.2.15 cells secrete Dane-like viral particles, produce HBV DNA, and produce the viral proteins, HBeAg and HBsAg.
Non-limiting examples of HBV RNA destabilizers are Compound A and Compound B. The EC50 values of these agents are shown in Table 12. Although inhibition of HBV DNA, RNA and proteins can be determined in the presence of the compounds of the invention and LNPs (both referred to herein as “agents”), the assay that can quantitatively measure the level of HBsAg was used in this study. To test the agent combinations, HepG2.2.15 (30,000 cells/well) were plated in 96 well tissue-culture treated microtiter plates in DMEM+L-Glutamine medium supplemented with 1% penicillin-streptomycin, 20 μg/mL geneticin (G418), 10% fetal bovine serum, and incubated in a humidified incubator at 37° C. and 5% CO2 overnight. The next day, the cells were replenished with fresh medium followed by the addition of compound of the invention (dissolved in 100% DMSO), and LNP (dissolved in 100% RPMI medium). The agents were added to cells in a checkerboard fashion. The microtiter cell plates were incubated for a total duration of 6 days in a humidified incubator at 37° C. and 5% CO2. On the 3rd day of incubation, the cells were replenished with fresh medium and agents. The serial dilutions spanned concentration ranges respective to the EC50 value of each agent, with the final DMSO concentration of the assay being 0.5%. In addition to combination testing of the agents in a checkerboard fashion, the compound and LNP were also tested alone.
Untreated positive control samples (0.5% DMSO in media) were included on each plate in multiple wells. Following a 6 day-incubation, media was removed from treated cells for use in an HBsAg chemiluminescence immunoassay (CLIA) (Autobio Diagnostics, Cat No. CL0310-2). An HBsAg standard curve was generated to verify that the levels of HBsAg quantification were within the detection limits of the assay. The remaining inhibitor-treated cells were assessed for cytotoxicity by determination of the intracellular adenosine triphosphate (ATP) using a Cell-Titer Glo reagent (Promega) as per manufacturers instructions and by microscopic analysis of the cells throughout the duration of inhibitor treatment. Cell viability was calculated as a percentage of the untreated positive control wells.
The plates were read using an EnVision multimode plate reader (PerkinElmer Model 2104). […] The RLU data from the single agent treated cells were analyzed using XL-Fit module in Microsoft Excel to determine EC50 values using a 4-parameter curve fitting algorithm.

[4] = Compound A 0.0001 μM, LNP-1 0.0025, 0.00079, 0.00025, 7.9E−05, 2.5E−05, 0 μM
[5] = Compound A 0.000316 μM, LNP-1 0.0025, 0.00079, 0.00025, 7.9E−05, 2.5E−05, 0 μM
[6] = Compound A 0.001 μM, LNP-1 0.0025, 0.00079, 0.00025, 7.9E−05, 2.5E−05, 0 μM
[7] = Compound A 0.00316 μM, LNP-1 0.0025, 0.00079, 0.00025, 7.9E−05, 2.5E−05, 0 μM
[8] = Compound A 0.1 μM, LNP-1 0.0025, 0.00079, 0.00025, 7.9E−05, 2.5E−05, 0 μM
[9] = Compound A 1.0E−05 μM, LNP-1 0.0025, 0.00079, 0.00025, 7.9E−05, 2.5E−05, 0 μM
[10] = Compound A 1.0E−05 μM, LNP-2 0.0025, 0.00079, 0.00025, 7.9E−05, 2.5E−05, 0 μM
[11] = Compound A 1.00E−06 μM, LNP-1 0.0025, 0.00079, 0.00025, 7.9E−05, 2.5E−05, 0 μM
[12] = Compound A 1.00E−06 μM, LNP-2 0.0025, 0.00079, 0.00025, 7.9E−05, 2.5E−05, 0 μM
[13] = Compound A 3.16E−06 μM, LNP-1 0.0025, 0.00079, 0.00025, 7.9E−05, 2.5E−05, 0 μM
[14] = Compound A 3.16E−06 μM, LNP-2 0.0025, 0.00079, 0.00025, 7.9E−05, 2.5E−05, 0 μM
[15] = Compound A 3.17E−05 μM, LNP-1 0.0025, 0.00079, 0.00025, 7.9E−05, 2.5E−05, 0 μM
[16] = Compound A 3.17E−05 μM, LNP-2 0.0025, 0.00079, 0.00025, 7.9E−05, 2.5E−05, 0 μM

**Q.** With `COc1cc2c(nc1OC)-c1cc(=O)c(C(=O)O)cn1C(C(C)C)C2` (stereo not shown) [drawing 619] as the compound, how does the EC50 (HBV) read?
**A.** The EC50 was 0.002 µM.

**Q.** With `COCCCOc1cc2c(nc1OC)-c1cc(=O)c(C(=O)O)cn1[C@H](C(C)C)C2` [drawing 615] as the compound, how does the EC50 (HBV) read?
**A.** The EC50 was 0.0004 µM.

**Q.** For `CC(C)[C@@H]1COc2cc(OCCCCO)c(Cl)cc2-c2cc(=O)c(C(=O)O)cn21` [drawing 617], which EC50 (HBV) is on record?
**A.** Its EC50 is 0.02 µM.

**Q.** With `COCCOc1cc2c(cc1Cl)-c1cc(=O)c(C(=O)O)cn1C(C(C)C)CO2` (stereo not shown) [drawing 618] as the compound, how does the EC50 (HBV) read?
**A.** The EC50 was 0.046 µM.

**Q.** For `CC(C)[C@@H]1COc2cc(OCCCO)c(Cl)cc2-c2cc(=O)c(C(=O)O)cn21` [drawing 616], which EC50 (HBV) is on record?
**A.** The EC50 was 0.007 µM.

**Q.** For `COc1cc2c(cc1Cl)-c1cc(=O)c(C(=O)O)cn1C(C(C)C)CO2` (stereo not shown), which EC50 (HBV) is on record?
**A.** Its EC50 is 0.077 µM.

**Q.** What does the source list for `COCCCOc1cc2c(nc1OC)-c1cc(=O)c(C(=O)O)cn1[C@H](C(C)C)C2` (single isomer, unassigned) [Example 22]?
**A.** clearance from blood plasma [1]: cleared relatively slowly; EC50 (HBsAg [2]): 0.002 µM; effect on measured electrocardiogram parameters (isolated heart): no effect on any of the measured electrocardiogram parameters

**Q.** For `COc1cc2c(cc1Cl)-c1cc(=O)c(C(=O)O)cn1[C@H](C(C)C)CO2`, which EC50 (HBV) is on record?
**A.** The EC50 was 0.03 µM.

**Q.** For `CC(C)(C)C1Cc2cc3c(cc2-c2cc(=O)c(C(=O)O)cn21)OCCCO3` (stereo not shown) [drawing 612], which EC50 (HBV) is on record?
**A.** The EC50 was 0.007 µM.

**Q.** What does the source list for `COCCCOc1cc2c(nc1OC)-c1cc(=O)c(C(=O)O)cn1[C@H](C(C)C)C2` [Compound A]?
**A.** Additive % Inhibition (HBsAg) versus negative control (HBsAg [3]; [4]): 47.52%; Avg % Inhibition (HBsAg) versus negative control (HBsAg [3]; [4]): 47.52%; Additive % Inhibition (HBsAg) versus negative control (HBsAg [3]; Compound A 0.0001 μM, LNP-2 0.0025, 0.00079, 0.00025, 7.9E−05, 2.5E−05, 0 μM): 48.07%; Avg % Inhibition (HBsAg) versus negative control (HBsAg [3]; Compound A 0.0001 μM, rows r14-r19 = LNP-2 0.0025, 0.00079, 0.00025, 7.9E−05, 2.5E−05, 0 μM): 48.07%; Additive % Inhibition (HBsAg) versus negative control (HBsAg [3]; [5]): 66.21%; Avg % Inhibition (HBsAg) versus negative control (HBsAg [3]; [5]): 66.21%; Additive % Inhibition (HBsAg) versus negative control (HBsAg [3]; Compound A 0.000316 μM, LNP-2 0.0025, 0.00079, 0.00025, 7.9E−05, 2.5E−05, 0 μM): 74.6%; Avg % Inhibition (HBsAg) versus negative control (HBsAg [3]; Compound A 0.000316 μM, rows r14-r19 = LNP-2 0.0025, 0.00079, 0.00025, 7.9E−05, 2.5E−05, 0 μM): 74.6%; Additive % Inhibition (HBsAg) versus negative control (HBsAg [3]; [6]): 84.38%; Avg % Inhibition (HBsAg) versus negative control (HBsAg [3]; [6]): 84.38%; Additive % Inhibition (HBsAg) versus negative control (HBsAg [3]; Compound A 0.001 μM, LNP-2 0.0025, 0.00079, 0.00025, 7.9E−05, 2.5E−05, 0 μM): 87.41%; Avg % Inhibition (HBsAg) versus negative control (HBsAg [3]; Compound A 0.001 μM, rows r14-r19 = LNP-2 0.0025, 0.00079, 0.00025, 7.9E−05, 2.5E−05, 0 μM): 87.41%; Additive % Inhibition (HBsAg) versus negative control (HBsAg [3]; [7]): 90.37%; Avg % Inhibition (HBsAg) versus negative control (HBsAg [3]; [7]): 90.37%; Additive % Inhibition (HBsAg) versus negative control (HBsAg [3]; Compound A 0.00316 μM, LNP-2 0.0025, 0.00079, 0.00025, 7.9E−05, 2.5E−05, 0 μM): 92.04%; Avg % Inhibition (HBsAg) versus negative control (HBsAg [3]; Compound A 0.00316 μM, rows r14-r19 = LNP-2 0.0025, 0.00079, 0.00025, 7.9E−05, 2.5E−05, 0 μM): 92.04%; Additive % Inhibition (HBsAg) versus negative control (HBsAg [3]; [8]): 92.38%; Avg % Inhibition (HBsAg) versus negative control (HBsAg [3]; [8]): 92.38%; Additive % Inhibition (HBsAg) versus negative control (HBsAg [3]; Compound A 0.1 μM, LNP-2 0.0025, 0.00079, 0.00025, 7.9E−05, 2.5E−05, 0 μM): 93.74%; Avg % Inhibition (HBsAg) versus negative control (HBsAg [3]; Compound A 0.1 μM, rows r14-r19 = LNP-2 0.0025, 0.00079, 0.00025, 7.9E−05, 2.5E−05, 0 μM): 93.74%; Additive % Inhibition (HBsAg) versus negative control (HBsAg [3]; [9]): 16.81%; Avg % Inhibition (HBsAg) versus negative control (HBsAg [3]; [9]): 16.81%; Additive % Inhibition (HBsAg) versus negative control (HBsAg [3]; [10]): 27.46%; Avg % Inhibition (HBsAg) versus negative control (HBsAg [3]; [10]): 27.46%; Additive % Inhibition (HBsAg) versus negative control (HBsAg [3]; [11]): 17.73%; Avg % Inhibition (HBsAg) versus negative control (HBsAg [3]; [11]): 17.73%; Additive % Inhibition (HBsAg) versus negative control (HBsAg [3]; [12]): 16%; Avg % Inhibition (HBsAg) versus negative control (HBsAg [3]; [12]): 16%; Additive % Inhibition (HBsAg) versus negative control (HBsAg [3]; [13]): 8.39%; Avg % Inhibition (HBsAg) versus negative control (HBsAg [3]; [13]): 8.39%; Additive % Inhibition (HBsAg) versus negative control (HBsAg [3]; [14]): 20.62%; Avg % Inhibition (HBsAg) versus negative control (HBsAg [3]; [14]): 20.62%; Additive % Inhibition (HBsAg) versus negative control (HBsAg [3]; [15]): 23.55%; Avg % Inhibition (HBsAg) versus negative control (HBsAg [3]; [15]): 23.55%; Additive % Inhibition (HBsAg) versus negative control (HBsAg [3]; [16]): 34.41%; Avg % Inhibition (HBsAg) versus negative control (HBsAg [3]; [16]): 34.41%; EC50 (HBsAg [3]; HepG2.2.15 cell culture, HBsAg quantitation by CLIA, read-out: 1st Inhibitor EC50): 1 nM

**Q.** With `COCCCOc1cc2c(cc1Cl)-c1cc(=O)c(C(=O)O)cn1[C@H](C(C)C)CO2` [drawing 614] as the compound, how does the EC50 (HBV) read?
**A.** The EC50 was 0.009 µM.

Reference: US11013726B2 (Arbutus Biopharma Corporation, priority 2016, dated 2021)
